Assay results taken from PubChem BioAssay AID1963836 (Molecular Pharmacology Branch, DTP, NCI, 2024).

Tested on: 857933-349-R-J2-PDC complex spheroid viability
Assay: Anticancer human tumor 857933-349-R-J2-PDC patient-derived colon adenocarcinoma cell line growth inhibition [POLQ]
Settings: for IC50: curve of first compound; for viability, T/C: stronger effect = lower value; active = viability on the fitted dose curve at most 10% of control; inactive = the rest
Outline: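 Three-cell-type spheroids modelling solid tumor plus stroma served as the readout system; POL inhibitors were tested individually and in combination, concentration ranges set by clinical Cmax where known.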

[1] = second compound 0.0316 µM, first compound 0.0316 µM
[2] = second compound 0.0316 µM, first compound 0.1 µM
[3] = second compound 0.0316 µM, first compound 0.316 µM
[4] = second compound 0.0316 µM, first compound 1 µM
[5] = second compound 0.0316 µM, first compound 3.16 µM
[6] = second compound 0.0316 µM, first compound 10 µM
[7] = second compound 0.1 µM, first compound 0.0316 µM
[8] = second compound 0.1 µM, first compound 0.1 µM
[9] = second compound 0.1 µM, first compound 0.316 µM
[10] = second compound 0.1 µM, first compound 1 µM
[11] = second compound 0.1 µM, first compound 3.16 µM
[12] = second compound 0.1 µM, first compound 10 µM
[13] = second compound 0.316 µM, first compound 0.0316 µM
[14] = second compound 0.316 µM, first compound 0.1 µM
[15] = second compound 0.316 µM, first compound 0.316 µM
[16] = second compound 0.316 µM, first compound 1 µM
[17] = second compound 0.316 µM, first compound 3.16 µM
[18] = second compound 0.316 µM, first compound 10 µM
[19] = second compound 1 µM, first compound 0.0316 µM
[20] = second compound 1 µM, first compound 0.1 µM
[21] = second compound 1 µM, first compound 0.316 µM
[22] = second compound 1 µM, first compound 1 µM
[23] = second compound 1 µM, first compound 3.16 µM
[24] = second compound 1 µM, first compound 10 µM
[25] = second compound 3.16 µM, first compound 0.0316 µM
[26] = second compound 3.16 µM, first compound 0.1 µM
[27] = second compound 3.16 µM, first compound 0.316 µM
[28] = second compound 3.16 µM, first compound 1 µM
[29] = second compound 3.16 µM, first compound 3.16 µM
[30] = second compound 3.16 µM, first compound 10 µM
[31] = second compound 10 µM, first compound 0.0316 µM
[32] = second compound 10 µM, first compound 0.1 µM
[33] = second compound 10 µM, first compound 0.316 µM
[34] = second compound 10 µM, first compound 1 µM
[35] = second compound 10 µM, first compound 3.16 µM
[36] = second compound 10 µM, first compound 10 µM
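Also: spheroids exposed to compounds for seven days before readout.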

C#Cc1c(F)ccc2cc(O)cc(-c3ncc4c(N5CC6CCC(C5)N6)nc(OCC56CCCN5CC(F)C6)nc4c3F)c12 (stereo unspecified) + COC1C(OC(N)=O)C(O)C(Oc2ccc3c(O)c(NC(=O)c4ccc(O)c(CC=C(C)C)c4)c(=O)oc3c2C)OC1(C)C
inactive: viability, T/C [1] 106% | viability, T/C [2] 94.9% | viability, T/C [3] 92.3% | viability, T/C [4] 79.2% | viability, T/C [5] 70.8% | viability, T/C [6] 99.2% | viability, T/C [7] 102% | viability, T/C [8] 102% | viability, T/C [9] 94% | viability, T/C [10] 80.7% | viability, T/C [11] 86.6% | viability, T/C [12] 92.2% | viability, T/C [13] 98% | viability, T/C [14] 96.7% | viability, T/C [15] 81.2% | viability, T/C [16] 88.6% | viability, T/C [17] 84.9% | viability, T/C [18] 78.1% | viability, T/C [19] 114% | viability, T/C [20] 95.1% | viability, T/C [21] 79.3% | viability, T/C [22] 82.3% | viability, T/C [23] 95.5% | viability, T/C [24] 90.8% | viability, T/C [25] 96.4% | viability, T/C [26] 98.6% | viability, T/C [27] 96% | viability, T/C [28] 119% | viability, T/C [29] 88.1% | viability, T/C [30] 94.5% | viability, T/C [31] 98.3% | viability, T/C [32] 89.8% | viability, T/C [33] 93% | viability, T/C [34] 77.6% | viability, T/C [35] 85.4% | viability, T/C [36] 104%
> 10000 nM: IC50 (second compound 0.0316 µM) | IC50 (second compound 0.1 µM) | IC50 (second compound 0.316 µM) | IC50 (second compound 1 µM) | IC50 (second compound 3.16 µM) | IC50 (second compound 10 µM)

Nc1ccn(C2OC(CO)C(O)C2(F)F)c(=O)n1 (stereo unspecified) + COC1C(OC(N)=O)C(O)C(Oc2ccc3c(O)c(NC(=O)c4ccc(O)c(CC=C(C)C)c4)c(=O)oc3c2C)OC1(C)C
138 nM: IC50 (second compound 3.16 µM)
159 nM: IC50 (second compound 0.0316 µM)
inactive: viability, T/C [1] 68.6% | viability, T/C [2] 63.7% | viability, T/C [3] 30.3% | viability, T/C [4] 17.6% | viability, T/C [5] 12.9% | viability, T/C [6] 11.4% | viability, T/C [7] 91.6% | viability, T/C [8] 63.3% | viability, T/C [9] 26.3% | viability, T/C [10] 17.3% | viability, T/C [11] 11.3% | viability, T/C [12] 11.4% | viability, T/C [13] 67.3% | viability, T/C [14] 64.5% | viability, T/C [15] 22.4% | viability, T/C [16] 16.8% | viability, T/C [17] 13.5% | viability, T/C [18] 10.9% | viability, T/C [19] 74.1% | viability, T/C [20] 68.5% | viability, T/C [21] 25.5% | viability, T/C [22] 19.6% | viability, T/C [23] 14.5% | viability, T/C [24] 7.53% | viability, T/C [25] 82.1% | viability, T/C [26] 59.4% | viability, T/C [27] 25.8% | viability, T/C [28] 16.8% | viability, T/C [29] 12.8% | viability, T/C [30] 11.8% | viability, T/C [31] 77.7% | viability, T/C [32] 65.6% | viability, T/C [33] 28.2% | viability, T/C [34] 14.9% | viability, T/C [35] 16.3% | viability, T/C [36] 11.8%
164 nM: IC50 (second compound 1 µM)
152 nM: IC50 (second compound 0.1 µM)
162 nM: IC50 (second compound 10 µM)
148 nM: IC50 (second compound 0.316 µM)

CC(=O)O[C@H]1C(=O)[C@@]2(C)[C@H]([C@H](OC(=O)c3ccccc3)[C@]3(O)C[C@H](OC(=O)[C@H](O)[C@@H](NC(=O)c4ccccc4)c4ccccc4)C(C)=C1C3(C)C)[C@]1(OC(C)=O)CO[C@@H]1C[C@@H]2O + COC1C(OC(N)=O)C(O)C(Oc2ccc3c(O)c(NC(=O)c4ccc(O)c(CC=C(C)C)c4)c(=O)oc3c2C)OC1(C)C
14.6 nM: IC50 (second compound 0.1 µM)
13.2 nM: IC50 (second compound 0.316 µM)
12.2 nM: IC50 (second compound 1 µM)
9.76 nM: IC50 (second compound 3.16 µM)
inactive: viability, T/C (second compound 0.0316 µM, first compound 0.00949 µM) 48.7% | viability, T/C (second compound 0.0316 µM, first compound 0.03 µM) 25% | viability, T/C (second compound 0.0316 µM, first compound 0.0949 µM) 19.1% | viability, T/C (second compound 0.0316 µM, first compound 0.3 µM) 17.6% | viability, T/C (second compound 0.0316 µM, first compound 0.949 µM) 15.8% | viability, T/C (second compound 0.0316 µM, first compound 3 µM) 20.8% | viability, T/C (second compound 0.1 µM, first compound 0.00949 µM) 61% | viability, T/C (second compound 0.1 µM, first compound 0.03 µM) 31.7% | viability, T/C (second compound 0.1 µM, first compound 0.0949 µM) 15.2% | viability, T/C (second compound 0.1 µM, first compound 0.3 µM) 15.4% | viability, T/C (second compound 0.1 µM, first compound 0.949 µM) 15.1% | viability, T/C (second compound 0.1 µM, first compound 3 µM) 16.5% | viability, T/C (second compound 0.316 µM, first compound 0.00949 µM) 57.8% | viability, T/C (second compound 0.316 µM, first compound 0.03 µM) 30.2% | viability, T/C (second compound 0.316 µM, first compound 0.0949 µM) 15.7% | viability, T/C (second compound 0.316 µM, first compound 0.3 µM) 19.7% | viability, T/C (second compound 0.316 µM, first compound 0.949 µM) 13.8% | viability, T/C (second compound 0.316 µM, first compound 3 µM) 25.4% | viability, T/C (second compound 1 µM, first compound 0.00949 µM) 58.7% | viability, T/C (second compound 1 µM, first compound 0.03 µM) 19.7% | viability, T/C (second compound 1 µM, first compound 0.0949 µM) 12.8% | viability, T/C (second compound 1 µM, first compound 0.3 µM) 20.5% | viability, T/C (second compound 1 µM, first compound 0.949 µM) 16.1% | viability, T/C (second compound 1 µM, first compound 3 µM) 20.3% | viability, T/C (second compound 3.16 µM, first compound 0.00949 µM) 50.7% | viability, T/C (second compound 3.16 µM, first compound 0.03 µM) 21.3% | viability, T/C (second compound 3.16 µM, first compound 0.0949 µM) 15.2% | viability, T/C (second compound 3.16 µM, first compound 0.3 µM) 16.4% | viability, T/C (second compound 3.16 µM, first compound 0.949 µM) 16.4% | viability, T/C (second compound 3.16 µM, first compound 3 µM) 19.3% | viability, T/C (second compound 10 µM, first compound 0.00949 µM) 54.5% | viability, T/C (second compound 10 µM, first compound 0.03 µM) 25.5% | viability, T/C (second compound 10 µM, first compound 0.0949 µM) 18.3% | viability, T/C (second compound 10 µM, first compound 0.3 µM) 17.4% | viability, T/C (second compound 10 µM, first compound 0.949 µM) 15.7% | viability, T/C (second compound 10 µM, first compound 3 µM) 20.7%
< 9.49 nM: IC50 (second compound 0.0316 µM)
11.3 nM: IC50 (second compound 10 µM)
